From ChEMBL document CHEMBL1201862, “PubChem BioAssay data set” (2004)
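Five concentrations, 48 hours, 96-well plates. GI50 = concentration required for 50% inhibition of growth.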 Active and inactive are the calls of the source. No stated cut-off is given here; in the data, active = GI50 up to about 1.1 µM and inactive = higher.

Tests used:
Assay in all cases: growth of human tumour cells (NCI), 48 h
[1] = test system: MDA-N
[2] = test system: SF-539
[3] = test system: ACHN
[4] = test system: COLO 205
[5] = test system: HCT-15
[6] = test system: M14
[7] = test system: BT-549
[8] = test system: OVCAR-5
[9] = test system: RPMI-8226
[10] = test system: TK-10
[11] = test system: NCI/ADR-RES
[12] = test system: OVCAR-4
[13] = test system: SK-OV-3
[14] = test system: UO-31
[15] = test system: A549
[16] = test system: RXF 393
[17] = test system: NCI-H522
[18] = test system: CCRF-CEM
[19] = test system: HOP-92

| Compound | GI50 [1] | GI50 [2] | GI50 [3] | GI50 [4] | GI50 [5] | GI50 [6] | GI50 [7] | GI50 [8] | GI50 [9] | GI50 [10] | GI50 [11] | GI50 [12] | GI50 [13] | GI50 [14] | GI50 [15] | GI50 [16] | GI50 [17] | GI50 [18] | GI50 [19] |
| --- | --- | --- | --- | --- | --- | --- | --- | --- | --- | --- | --- | --- | --- | --- | --- | --- | --- | --- | --- |
| C[n+]1c2ccccc2c(C(=O)Nc2ccc(S(=O)(=O)Nc3ncccn3)cc2)c2ccccc21 | 47.4 µM (inactive) | > 100 µM (inactive) | > 100 µM (inactive) | > 100 µM (inactive) | > 100 µM | > 100 µM (inactive) | 45.1 µM (inactive) | > 100 µM (inactive) | > 100 µM (inactive) | > 100 µM (inactive) | 32.5 µM (inactive) | > 100 µM (inactive) | > 100 µM (inactive) | 75.5 µM (inactive) | > 100 µM (inactive) | – | – | – | – |
| O=c1onc2n1-c1ccc(Cl)cc1C(=S)N1CSCC21 (stereo unspecified) | 8.71 µM (inactive) | – | 66.8 µM (inactive) | 18.4 µM (inactive) | 26.6 µM | 11.1 µM (inactive) | 20.5 µM (inactive) | 31.3 µM (inactive) | 31.3 µM (inactive) | 70.5 µM (inactive) | 17.3 µM (inactive) | 59.2 µM (inactive) | 19.4 µM (inactive) | 59 µM (inactive) | 34.8 µM (inactive) | 33.6 µM (inactive) | 21.9 µM (inactive) | 25.9 µM (inactive) | – |
| CC1(CCCC2(C)CCNC2=O)OCCO1 (stereo unspecified) | > 10 µM (inactive) | > 10 µM (inactive) | > 10 µM (inactive) | > 10 µM (inactive) | > 10 µM | > 10 µM (inactive) | > 10 µM (inactive) | > 10 µM (inactive) | > 10 µM (inactive) | > 10 µM (inactive) | > 10 µM (inactive) | > 10 µM (inactive) | > 10 µM (inactive) | > 10 µM (inactive) | > 10 µM (inactive) | > 10 µM (inactive) | – | > 10 µM (inactive) | – |
| Cc1ccc2c(=O)c(-c3nnsn3)c[nH]c2n1 | > 100 µM (inactive) | – | > 100 µM (inactive) | > 100 µM (inactive) | > 100 µM | > 100 µM (inactive) | > 100 µM (inactive) | > 100 µM (inactive) | > 100 µM (inactive) | > 100 µM (inactive) | > 100 µM (inactive) | > 100 µM (inactive) | – | > 100 µM (inactive) | > 100 µM (inactive) | > 100 µM (inactive) | > 100 µM (inactive) | > 100 µM (inactive) | – |
| N=c1sc(N2CCOCC2)nn1CC(=O)c1ccccc1 | > 100 µM (inactive) | – | > 100 µM (inactive) | > 100 µM (inactive) | > 100 µM | > 100 µM (inactive) | > 100 µM (inactive) | > 100 µM (inactive) | > 100 µM (inactive) | > 100 µM (inactive) | > 100 µM (inactive) | > 100 µM (inactive) | > 100 µM (inactive) | > 100 µM (inactive) | > 100 µM (inactive) | > 100 µM (inactive) | > 100 µM (inactive) | > 100 µM (inactive) | – |
| CN1CC(c2ccccc2)=CC2=C1C=CC(=N)/C2=N\N | > 100 µM (inactive) | > 100 µM (inactive) | > 100 µM (inactive) | – | > 100 µM | > 100 µM (inactive) | 52.2 µM (inactive) | > 100 µM (inactive) | > 100 µM (inactive) | > 100 µM (inactive) | 47.1 µM (inactive) | > 100 µM (inactive) | > 100 µM (inactive) | > 100 µM (inactive) | > 100 µM (inactive) | – | > 100 µM (inactive) | > 100 µM (inactive) | – |
| COc1ccc(-n2c(N)c(C#N)c(C#N)c2-c2ccccc2)cc1 | – | 11 µM (inactive) | > 100 µM (inactive) | > 100 µM (inactive) | > 100 µM | > 100 µM (inactive) | 19.1 µM (inactive) | > 100 µM (inactive) | > 100 µM (inactive) | > 100 µM (inactive) | > 100 µM (inactive) | 15.1 µM (inactive) | > 100 µM (inactive) | > 100 µM (inactive) | > 100 µM (inactive) | 23.8 µM (inactive) | 59.4 µM (inactive) | > 100 µM (inactive) | 10.1 µM (inactive) |
